In the supplement of paper PMC4723716:
Counter-ions that a name gives are not always drawn.

System: Plasmodium falciparum NF54 gametocytes
Details: 384, incubation time: 72 h
Experimental: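 Known antimalarials and MMV control compounds in dose response against each stage (I–V) […] The fitted EC50 is reported as IC50 in µM; '>' marks the top dose reached without a curve.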

[1] = gametocyte stage: Stage I Dose Response IC50 (µM), assay protocol: SaLSSA
[2] = gametocyte stage: Stage II Dose Response IC50 (µM), assay protocol: SaLSSA
[3] = gametocyte stage: Stage III Dose Response IC50 (µM), assay protocol: SaLSSA
[4] = gametocyte stage: Stage IV Dose Response IC50 (µM), assay protocol: SaLSSA
[5] = gametocyte stage: Stage V Dose Response IC50 (µM), assay protocol: SaLSSA
[6] = gametocyte stage: Stage I Dose Response IC50 (µM), assay protocol: TSSA
[7] = gametocyte stage: Stage II Dose Response IC50 (µM), assay protocol: TSSA
[8] = gametocyte stage: Stage III Dose Response IC50 (µM), assay protocol: TSSA
[9] = gametocyte stage: Stage IV Dose Response IC50 (µM), assay protocol: TSSA
[10] = gametocyte stage: Stage V Dose Response IC50 (µM), assay protocol: TSSA

Structure (SMILES)	IC50 of gametocyte viability [1]	IC50 of gametocyte viability [2]	IC50 of gametocyte viability [3]	IC50 of gametocyte viability [4]	IC50 of gametocyte viability [5]	IC50 of gametocyte viability [6]	IC50 of gametocyte viability [7]	IC50 of gametocyte viability [8]	IC50 of gametocyte viability [9]	IC50 of gametocyte viability [10]
C[C@H]1[C@H](OC(=O)CCC(=O)O)O[C@@H]2O[C@@]3(C)CC[C@H]4[C@H](C)CC[C@@H]1[C@@]24OO3 [Artesunate] [listing 1 of 2 here]	0.00773 µM	0.00351 µM	0.0126 µM	0.0491 µM	> 10.6 µM					
C[C@H]1[C@H](OC(=O)CCC(=O)O)O[C@@H]2O[C@@]3(C)CC[C@H]4[C@H](C)CC[C@@H]1[C@@]24OO3 [Artesunate] [listing 2 of 2 here]						0.00565 µM	0.00577 µM	0.0172 µM	0.02 µM	> 12.5 µM
O=C1C(O)=C([C@H]2CC[C@H](c3ccc(Cl)cc3)CC2)C(=O)c2ccccc21 [Atovaquone] [listing 1 of 2 here]						> 12.5 µM	> 12.5 µM	> 12.5 µM	> 12.5 µM	> 12.5 µM
O=C1C(O)=C([C@H]2CC[C@H](c3ccc(Cl)cc3)CC2)C(=O)c2ccccc21 [Atovaquone] [listing 2 of 2 here]	> 12.5 µM	> 12.5 µM	> 12.5 µM	2.37 µM	> 12.5 µM					
CC[C@H]1OC(=O)[C@H](C)[C@@H](O[C@H]2C[C@@](C)(OC)[C@@H](O)[C@H](C)O2)[C@H](C)[C@@H](O[C@@H]2O[C@H](C)C[C@H](N(C)C)[C@H]2O)[C@](C)(O)C[C@@H](C)CN(C)[C@H](C)[C@@H](O)[C@]1(C)O [Azithromycin]						> 12.5 µM	> 12.5 µM	> 12.5 µM	> 12.5 µM	> 12.5 µM
CC[C@H]1OC(=O)[C@H](C)[C@H](O[C@H]2C[C@@](C)(OC)[C@@H](O)[C@H](C)O2)[C@H](C)[C@@H](O[C@@H]2O[C@H](C)C[C@H](N(C)C)[C@H]2O)[C@](C)(O)C[C@@H](C)CN(C)[C@H](C)[C@H](O)[C@]1(C)O [Azithromycin]	> 12.5 µM	> 12.5 µM	> 12.2 µM	> 12.5 µM	> 12.5 µM					
CCN(CC)CCCC(C)Nc1ccnc2cc(Cl)ccc12 (centres undefined) [Chloroquine]	0.0956 µM	0.0981 µM	> 6.25 µM	> 6.25 µM	> 6.25 µM	0.084 µM	0.0806 µM	> 6.25 µM	> 6.25 µM	> 6.25 µM
CC(C)NC(=N)NC(=N)Nc1ccc(Cl)c(Cl)c1 [Chlorproguanil hydrochloride/1.11]	9.35 µM	7.79 µM	7.87 µM	5.21 µM	4.8 µM	> 12.5 µM	> 12.5 µM	8.37 µM	7.57 µM	> 11 µM
CC1(C)N=C(N)N=C(N)N1c1ccc(Cl)cc1 [Cycloguanil]	> 12.5 µM	> 12.5 µM	> 12.5 µM	> 12.5 µM	> 12.5 µM					
C[C@@H]1C[C@@H]([C@H](O)CC2CC(=O)NC(=O)C2)C(=O)[C@@H](C)C1 [Cycloheximide] [listing 1 of 2 here]						1.23 µM	2.46 µM	2.51 µM	1.92 µM	4.62 µM
C[C@@H]1C[C@@H]([C@H](O)CC2CC(=O)NC(=O)C2)C(=O)[C@@H](C)C1 [Cycloheximide] [listing 2 of 2 here]	1.92 µM	0.64 µM	0.913 µM	0.477 µM	2.69 µM					
Nc1ccc(S(=O)(=O)c2ccc(N)cc2)cc1 [Dapsone]	> 12.5 µM	> 12.5 µM	> 12.5 µM	> 12.5 µM	> 12.5 µM					
CC(=O)N(O)CCCCCNC(=O)CCC(=O)N(O)CCCCCNC(=O)CCC(=O)N(O)CCCCCN [Deferoxamine mesylate salt]	> 12.5 µM	> 12.5 µM	> 12.5 µM	> 12.5 µM	> 12.5 µM					
C[C@H]1c2cccc(O)c2C(=O)C2=C(O)[C@]3(O)C(=O)C(C(N)=O)=C(O)[C@@H](N(C)C)[C@@H]3[C@@H](O)[C@@H]21 [Doxycyclin]	> 12.5 µM	> 12.5 µM	> 12.5 µM	> 12.5 µM	> 12.5 µM					
C[C@H]1c2cccc(O)c2C(O)=C2C(=O)[C@]3(O)C(O)=C(C(N)=O)C(=O)[C@@H](N(C)C)[C@@H]3[C@@H](O)[C@@H]21 [Doxycyclin]						> 12.5 µM	> 12.5 µM	> 12.5 µM	> 12.5 µM	> 12.5 µM
CC[C@H](C)[C@H](NC(=O)[C@H]([C@@H](C)CC)N(C)C(C)=O)C(=O)N[C@H](C(=O)N[C@@H](CC(C)C)C(=O)[C@@]1(C)CO1)[C@@H](C)O [Epoxomycin]					0.0128 µM					
Cc1cc2nc3c(=O)[nH]c(=O)nc-3n(C[C@H](O)[C@H](O)[C@H](O)CO)c2cc1C [Flavin mononucleotid (Riboflavin)]	> 12.5 µM	> 12.5 µM	> 12.5 µM	> 12.5 µM	> 12.5 µM					
CCCCN(CCCC)CCC(O)c1cc2c(Cl)cc(Cl)cc2c2cc(C(F)(F)F)ccc12 (centres undefined) [Halofantrine] [listing 1 of 2 here]						0.00577 µM			> 12.5 µM	> 12.5 µM
CCCCN(CCCC)CCC(O)c1cc2c(Cl)cc(Cl)cc2c2cc(C(F)(F)F)ccc12 (centres undefined) [Halofantrine] [listing 2 of 2 here]	0.00161 µM	0.000896 µM	0.0233 µM	1.51 µM	0.0075 µM					
CCN(CCO)CCCC(C)Nc1ccnc2cc(Cl)ccc12 (centres undefined) [Hydroxychloroquine]	0.107 µM	0.131 µM	> 4.49 µM	> 6.25 µM	> 6.25 µM	0.104 µM	0.139 µM	> 6.25 µM	> 6.25 µM	> 6.25 µM
CC1Cc2c([nH]c3cc(F)c(F)cc23)C2(N1)C(=O)Nc1ccc(Cl)cc12 (centres undefined) [KAF246]	0.00139 µM	0.00186 µM	0.0021 µM	0.00177 µM	0.00235 µM					
CC1(C)c2nc(-c3ccc(F)cc3)c(Nc3ccc(Cl)cc3)n2CCN1C(=O)CN [KAF(GNF)179]	0.341 µM	0.0641 µM	0.0199 µM	0.00915 µM	0.00336 µM					
CN(C(=O)c1cn2c(-c3ccc(C#N)cc3)cnc2cn1)c1ccc(C(F)(F)F)cc1 [KAI407]	0.593 µM	0.636 µM	0.415 µM	0.329 µM	0.156 µM					
CNc1ccc(N(C)C(=O)c2cn3c(-c4ccc(Cl)cc4)cnc3cn2)cc1 [KDU691]	0.532 µM	0.565 µM	0.354 µM	0.237 µM	0.15 µM					
CCCCN(CCCC)CC(O)c1cc(Cl)cc2c1-c1ccc(Cl)cc1/C2=C/c1ccc(Cl)cc1 (centres undefined) [Lumefantrine] [listing 1 of 2 here]	0.0128 µM	0.0131 µM	0.015 µM	0.599 µM	0.0523 µM					
CCCCN(CCCC)CC(O)c1cc(Cl)cc2c1-c1ccc(Cl)cc1/C2=C/c1ccc(Cl)cc1 (centres undefined) [Lumefantrine] [listing 2 of 2 here]						0.0224 µM	0.0352 µM	0.0227 µM	> 9.77 µM	> 12.5 µM
OC(c1cc(C(F)(F)F)nc2c(C(F)(F)F)cccc12)C1CCCCN1 (centres undefined) [Mefloquine (+ RS)]						0.0512 µM	0.0471 µM	0.0585 µM	1.64 µM	6.34 µM
O[C@@H](c1cc(C(F)(F)F)nc2c(C(F)(F)F)cccc12)[C@H]1CCCCN1 [Mefloquine (+ RS)]	0.0379 µM	0.039 µM	0.078 µM	0.579 µM	0.158 µM					
CN(C)c1ccc2nc3ccc(N(C)C)cc3[s+]c2c1 [Methylene Blue trihydrate]	0.0199 µM	0.0153 µM	0.0133 µM	0.0117 µM	0.258 µM					
